Test results as given in US7087631B2, “Aryltetrazole compounds, and compositions thereof” (Inotek Pharmaceuticals Corporation, priority 2002, dated 2006).

Columns and labels:
[1] = tested on: thioacetamide model of hepatic failure; assay: Toxic liver injury model (thioacetamide model of hepatic failure), serum AST; assay type: in vivo; details: mice; for serum AST levels (result in words): summary of the table; for Percent Inhibition of Serum AST Levels: thioacetamide 400 mg/kg i.p., mean ±SEM (n=7-10)
Procedure: Illustrative 5-Aryltetrazole Compounds exert hepatoprotective effects in a thioacetamide model of hepatic failure. […] […] Results are expressed as percent inhibtion, mean ±SEM (n=7-10). Studies were conducted as described in Biochim. Biophys. Acta. 1536(1):21-30 (2001).

[2] = target: xanthine oxidase (Homo sapiens, UniProt P47989); assay: Xanthine oxidase inhibitory activity, 96 well plate, kinetic reading at 295 nm; assay type: biochemical
[3] = tested on: gut ischemia reperfusion; assay: Gut ischemia reperfusion-induced hyperpermeability and mortality; assay type: in vivo; details: mice; for Survival % (6 h): 6 hours of reperfusion, control 60; for Survival % (2 days): 2 days of reperfusion, control 0; for Gut Permeability: intraperitoneal, control 100%
Procedure: Illustrative 5-Aryltetrazole Compounds exert protective effects in various models of organ ischemia and reperfusion. For example, intraperitoneal administration of illustrative 5-Aryltetrazole Compounds retards the progression of gut ischemia reperfusion-induced hyperpermeability and mortality in mice. Results are expressed as % decrease in gut hyperpermeability and as mortality as observed after 6 hours and 2 days of reperfusion. Studies were conducted as described in Shock, 14(2): 134-141 (2000). There was a notable dose-dependent effect on gut hyperpermeability and there was an improvement in survival rate, as tested at the highest dose of both levels.

[4] = tested on: collagen-induced arthritis; assay: Collagen-induced arthritis; assay type: in vivo; details: mice; for % Incidence / Mean Severity: collagen-induced arthritis
Procedure: An illustrative 5-Aryltetrazole Compound exerts protective effects in a model of collagen-induced arthritis in mice. Results are expressed as incidence and severity over time. Studies were conducted as described in Inflamm. Res. 50(11):561-569 (2001). The results illustrate that the administration of Compound JO, an illustrative 5-Aryltetrazole Compound, reduced incidence of collagen-induced arthritis in mice.

[5] = tested on: hemorrhagic shock; details: canine model of hemorrhagic shock; cited from earlier work
[6] = tested on: severe hemorrhagic shock; details: canine, cited from earlier work; for benefit (survival): given alone after shock had been produced

Chain of xanthine oxidase (P47989 whole entry, species assumed, the tested form may be a part): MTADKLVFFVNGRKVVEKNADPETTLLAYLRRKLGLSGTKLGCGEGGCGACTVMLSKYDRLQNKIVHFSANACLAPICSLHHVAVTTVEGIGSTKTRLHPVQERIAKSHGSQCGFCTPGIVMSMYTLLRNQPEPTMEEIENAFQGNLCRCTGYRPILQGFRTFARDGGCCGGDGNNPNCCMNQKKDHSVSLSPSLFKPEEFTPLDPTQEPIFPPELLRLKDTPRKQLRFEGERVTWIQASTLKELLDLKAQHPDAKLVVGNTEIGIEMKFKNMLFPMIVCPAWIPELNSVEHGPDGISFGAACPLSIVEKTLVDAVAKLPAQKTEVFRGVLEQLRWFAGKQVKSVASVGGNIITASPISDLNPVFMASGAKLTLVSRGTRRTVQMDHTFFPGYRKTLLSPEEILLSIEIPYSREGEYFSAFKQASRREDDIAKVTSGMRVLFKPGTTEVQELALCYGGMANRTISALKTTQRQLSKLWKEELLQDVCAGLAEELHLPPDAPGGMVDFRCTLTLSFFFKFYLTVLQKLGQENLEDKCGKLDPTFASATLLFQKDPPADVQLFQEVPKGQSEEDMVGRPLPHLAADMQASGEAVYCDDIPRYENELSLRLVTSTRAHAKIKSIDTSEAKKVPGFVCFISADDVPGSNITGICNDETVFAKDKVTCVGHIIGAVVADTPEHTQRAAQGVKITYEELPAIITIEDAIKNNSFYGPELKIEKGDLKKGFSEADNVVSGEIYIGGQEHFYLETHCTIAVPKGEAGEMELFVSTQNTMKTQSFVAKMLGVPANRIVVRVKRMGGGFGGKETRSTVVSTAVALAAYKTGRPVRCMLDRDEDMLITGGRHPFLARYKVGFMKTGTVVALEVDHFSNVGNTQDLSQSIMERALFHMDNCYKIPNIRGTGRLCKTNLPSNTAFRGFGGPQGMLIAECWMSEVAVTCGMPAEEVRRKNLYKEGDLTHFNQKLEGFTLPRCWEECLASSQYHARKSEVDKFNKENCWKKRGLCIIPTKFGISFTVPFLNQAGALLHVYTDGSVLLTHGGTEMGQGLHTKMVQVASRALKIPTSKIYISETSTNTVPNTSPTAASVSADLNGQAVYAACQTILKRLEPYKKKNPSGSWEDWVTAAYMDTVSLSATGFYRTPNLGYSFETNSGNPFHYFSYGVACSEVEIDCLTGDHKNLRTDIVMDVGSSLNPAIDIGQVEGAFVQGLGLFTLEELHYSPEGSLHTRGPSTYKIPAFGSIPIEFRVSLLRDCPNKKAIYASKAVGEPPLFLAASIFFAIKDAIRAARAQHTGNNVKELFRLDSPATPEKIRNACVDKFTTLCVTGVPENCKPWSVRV

Row | Structure (SMILES) | Percent Inhibition of Serum AST Levels ([1]; single oral dose 10 mg/kg) | PERCENT XANTHINE OXIDASE INHIBITION ([2]; compound concentration 0.03 μM) | PERCENT XANTHINE OXIDASE INHIBITION ([2]; compound concentration 0.1 μM) | PERCENT XANTHINE OXIDASE INHIBITION ([2]; compound concentration 1 μM) | also measured
1 | O=C(Nc1ccccc1)c1ccc(-c2nn[nH]n2)cc1 [Compound IC] | 20 ± 5% | 60% | 81% | 100% | serum AST levels (result in words) [1]: inhibit serum AST levels; Percent Inhibition of Serum AST Levels ([1]; single oral dose 3 mg/kg): 3 ± 8%
2 | CC(C)Cc1ccc(NC(=O)c2ccc(-c3nnn[nH]3)cc2)cc1 [Compound IG] | 46 ± 8% | 33% | 59% | 93% | Survival % (6 h) ([3]; 30 mg/kg): 87%; Survival % (2 days) ([3]; 30 mg/kg): 20%; Gut Permeability ([3]; 3 mg/kg): 73%; Gut Permeability ([3]; 10 mg/kg): 69%; Gut Permeability ([3]; 30 mg/kg): 47%; serum AST levels (result in words) [1]: inhibit serum AST levels; Percent Inhibition of Serum AST Levels ([1]; single oral dose 3 mg/kg): 25 ± 4%
3 | CC(C)c1ccc(NC(=O)c2ccc(-c3nnn[nH]3)cc2)cc1 [Compound IP] | 41 ± 8% | 28% | 52% | 92% | serum AST levels (result in words) [1]: inhibit serum AST levels; Percent Inhibition of Serum AST Levels ([1]; single oral dose 3 mg/kg): 23 ± 8%
4 | O=C(O)c1ccc(NC(=O)c2ccc(-c3nnn[nH]3)cc2)cc1 [Compound IS] | 33 ± 5% | 44% | 68% | 97% | serum AST levels (result in words) [1]: inhibit serum AST levels
5 | Cc1ccc(NC(=O)c2ccc(-c3nnn[nH]3)cc2)cc1 [Compound JN] | 31 ± 7% | 20% | 41% | 88% | Percent Inhibition of Serum AST Levels ([1]; single oral dose 3 mg/kg): 11 ± 7%
6 | CC(C)(C)c1ccc(NC(=O)c2ccc(-c3nnn[nH]3)cc2)cc1 [Compound JO] | 36 ± 12% | 18% | 36% | 83% | Survival % (6 h) ([3]; 30 mg/kg): 87%; Survival % (2 days) ([3]; 30 mg/kg): 13%; Gut Permeability ([3]; 30 mg/kg): 39%; Percent Inhibition of Serum AST Levels ([1]; single oral dose 3 mg/kg): 24 ± 9%; incidence of collagen-induced arthritis (result in words) ([4]; after 33 days, versus untreated mice): significant decrease; % Incidence ([4]; day 25): 20%; Mean Severity ([4]; day 25): 0; % Incidence ([4]; day 27): 35%; Mean Severity ([4]; day 27): 0; % Incidence ([4]; day 29): 45%; Mean Severity ([4]; day 29): 3; % Incidence ([4]; day 31): 75%; Mean Severity ([4]; day 31): 8; % Incidence ([4]; day 33): 85%; Mean Severity ([4]; day 33): 8; collagen-induced arthritis (result in words) ([4]; summary): inhibits collagen-induced arthritis
7 | O=C(Nc1ccc(Cl)cc1)c1ccc(-c2nnn[nH]2)cc1 [IX] | 31 ± 1% | 46% | 74% | 98% | serum AST levels (result in words) [1]: inhibit serum AST levels
8 | O=C(Nc1ccc(F)cc1F)c1ccc(-c2nnn[nH]2)cc1 [IZ] |  | 23% | 52% | 89% | 
9 | O=C(NCc1ccccc1)c1ccc(-c2nnn[nH]2)cc1 [JA] |  |  | 0% |  | 
10 | COc1cc(-c2nnn[nH]2)ccc1OCC(C)C [JD] |  |  | 0% | 28% | 
11 | N#Cc1cc(-c2nnn[nH]2)ccc1C(=O)Nc1ccccc1 [JF] |  |  | 6% | 34% | 
12 | N#Cc1cc(-c2nnn[nH]2)ccc1C(=O)Nc1ccncc1 [JG] |  | 33% | 61% | 93% | 
13 | N#Cc1cc(-c2nnn[nH]2)ccc1C(=O)Nc1cccnc1 [JH] |  | 23% | 41% | 86% | 
14 | N#Cc1cc(-c2nnn[nH]2)ccc1C(=O)Nc1nccs1 [JI] |  | 19% | 30% | 79% | 
15 | O=C(Nc1ccccc1)c1ccc(-c2nnn[nH]2)cc1Cl [JJ] |  |  |  | 0% | 
16 | Cc1cc(C(=O)Nc2ccccc2)ccc1-c1nnn[nH]1 [JK] |  |  |  | 0% | 
17 | O=C(Nc1ccc(Cl)c(Cl)c1)c1ccc(-c2nnn[nH]2)cc1 [JL] |  | 34% | 68% | 95% | 
18 | CCc1ccc(NC(=O)c2ccc(-c3nnn[nH]3)cc2)cc1 [JM] | 31 ± 7% | 16% | 38% | 89% | Percent Inhibition of Serum AST Levels ([1]; single oral dose 3 mg/kg): 12 ± 7%
19 | CC(C)COc1ccc(-c2nnn[nH]2)cc1 [JP] |  | 46% | 74% | 98% | 
20 | O=C(OCc1ccccc1I)c1ccc(-c2nnn[nH]2)cc1 [JQ] |  |  |  | 100% | PERCENT XANTHINE OXIDASE INHIBITION ([2]; compound concentration 0.01 μM, 0.01 µM): 18%; PERCENT XANTHINE OXIDASE INHIBITION ([2]; compound concentration 0.1 μM, 0.1 µM): 89%
21 | COc1ccc2cc(-c3nnn[nH]3)ccc2c1 [JR] |  |  |  | 14% | PERCENT XANTHINE OXIDASE INHIBITION ([2]; compound concentration 10 μM): 56%; PERCENT XANTHINE OXIDASE INHIBITION ([2]; compound concentration 100 μM): 85%
22 | Oc1ncnc2[nH]ncc12 [allopurinol] |  |  |  |  | survival (result in words) [5]: significantly improved survival; benefit (survival) [6]: no benefit; increase in survival ([6]; pre-treatment): 6 fold
23 | O=c1[nH]cnc2nc[nH]c12 [hypoxanthine] |  |  |  |  | benefit (survival) [6]: no benefit
